Test results as given in patent US12471596B2 (priority 2019, dated 2025).

How the values were obtained:
Plasmopara viticola = assay: Example B: Plasmopara viticola test in grape (greenhouse, preventive); format: in vivo; details: 24 h, grape seedlings sprayed one day before inoculation, disease severity rating, read-out: control compared to the untreated check
Experimental: Example B: Plasmopara viticola Test in Grape
The compound were dissolved in 2% DMSO/Acetone & then mixed with water containing emulsifier to a calibrated spray volume of 50 mL. The spray solutions were poured into spray bottles for further applications.
To test the preventive activity of compounds, 5 week old healthy grape seedlings, cv. Thompson seedless, raised in the greenhouse, were sprayed with the active compound preparation at the stated application rates inside spray cabinets using hallow cone nozzles. One day after treatment, the plants were inoculated with an inoculum suspension (sterile water) containing 6×10^4 Plasmopara viticola inoculum. The inoculated plants were then kept in a greenhouse chamber at 18-21° C. temperature and 95-100% relative humidity for disease expression.
A visual assessment of the performance of the compound was carried out by rating the disease severity (0-100% scale) on treated plants 3, 7 and 10 days after application. Efficacy (% control) of the compound was calculated by comparing the disease rating in the treatment with the one of the untreated control. The compounds were also assessed for their plant compatibility by recording symptoms like necrosis, chlorosis & stunting

Phytophthora infestans [1] = assay: whole plant or invertebrate; format: in vivo, Phytophthora infestans on tomato plants; details: in Solanum lycopersicum, 24 h, read-out: control compared to the untreated check
Phytophthora infestans [2] = assay: microbe, parasite or virus in culture; format: cell-based; details: in Secale cereale, 168 h, read-out: control compared to the untreated check

COc1cncc(OCC(=O)N2CCC(c3nc(C4=NOC(c5c(F)cccc5Br)C4)cs3)CC2)n1 (stereo not drawn) [Compound 120, 1-(4-(4-(5-(2-bromo-6-fluorophenyl)-4,5-dihydroisoxazol-3-yl)thiazol-2-yl)piperidin-1-yl)-2-((6-methoxypyrazin-2-yl)oxy)ethan-1-one]
≥ 70%: pest or weed control at 50 ppm (Plasmopara viticola) | pest or weed control at 50 ppm (Phytophthora infestans [1]) | inhibition of growth at 30 ppm (Phytophthora infestans [2])

O=C(COc1nccnc1Cl)N1CCC(c2nc(C3=NOC(c4c(F)cccc4Br)C3)cs2)CC1 (stereo not drawn) [Compound 121, 1-(4-(4-(5-(2-bromo-6-fluorophenyl)-4,5-dihydroisoxazol-3-yl)thiazol-2-yl)piperidin-1-yl)-2-((3-chloropyrazin-2-yl)oxy)ethan-1-one]
≥ 70%: pest or weed control at 50 ppm (Plasmopara viticola) | pest or weed control at 50 ppm (Phytophthora infestans [1]) | inhibition of growth at 30 ppm (Phytophthora infestans [2])

O=C(COc1nccnc1Cl)N1CCC(c2nc(C3=NOC(c4c(F)cccc4F)C3)cs2)CC1 (stereo not drawn) [Compound 122, 2-((3-chloropyrazin-2-yl)oxy)-1-(4-(4-(5-(2,6-difluorophenyl)-4,5-dihydroisoxazol-3-yl)thiazol-2-yl)piperidin-1-yl)ethan-1-one]
≥ 70%: pest or weed control at 50 ppm (Plasmopara viticola) | pest or weed control at 50 ppm (Phytophthora infestans [1]) | inhibition of growth at 30 ppm (Phytophthora infestans [2])

O=C(COc1nccnc1Cl)N1CCC(c2nc(C3=NOC(c4c(Cl)cccc4Cl)C3)cs2)CC1 (stereo not drawn) [Compound 124, 2-((3-chloropyrazin-2-yl)oxy)-1-(4-(4-(5-(2,6-dichlorophenyl)-4,5-dihydroisoxazol-3-yl)thiazol-2-yl)piperidin-1-yl)ethan-1-one]
≥ 70%: pest or weed control at 50 ppm (Plasmopara viticola) | pest or weed control at 50 ppm (Phytophthora infestans [1]) | inhibition of growth at 30 ppm (Phytophthora infestans [2])
